The subject of data set [1] is primary rat brain cortical neurons treated with kainate. The data set is described as follows: Kainate-induced excitotoxicity in primary cortical neurons (LDH release). The format is cell-based. As to the method: (§1) Primary rat brain cortical neurons were cultured as follows. In brief, rat cerebral cortices were removed from brains of the 16 day-old-fetal rats. The neocortices were gently triturated and plated on 24 well plates (300,000 viable cells/cm2) in plating Modified Eagle's Medium (MEM) supplemented with 10% horse serum, 10% fetal calf serum and 2 mM L-glutamine. Cultures were maintained at 37 C in a humidified 5% CO2 atmosphere.
(§2) After 4 days' growth (DIV 4), half of the medium was replaced by a medium identical to the plating medium but lacking calf serum. At DIV4, 10 μM 5-fluoro-2-deoxyuridine was included to each well to halt overgrowth of glia. Mixed cultures of neurons and glia were then fed at DIV7 and DIV11 with MEM plus 5% horse serum previously conditioned by growth with cortical astrocytes for 24 h.
Excitotoxicity was induced in these cells by addition of 50 μM kainate or 20 μM N-methyl-D-aspartate plus 10 μM D-serine to each well.
Under the experimental conditions used, i.e. after 6 hours addition of excitotoxic agent, 40% toxicity is generally observed and measured by determination of the amount of lactate dehydrogenase (LDH) released into the medium following membrane degradation. Such assay methods are well-known; a kit for conducting a homogeneous form of the LDH assay format is sold by Promega under the name CytoTox ONE® Homogenous Membrane Integrity Assay. Overall cell injury was assessed microscopically under phase-contrast optics or by measuring amount of LDH released into the bathing medium 24 hr after neurotoxic insults (see, e.g., Koh and Choi, J. NEUROSCI. METHODS 20: 83-90, 1987), hereby incorporated by reference herein.
[…] The final results are normalized optical density (OD) values (treated cells/untreated control cells), where a value of 1 represents 100% neuronal survival and a value of 0.6 represents 60% survival.

The conditions of data set [2]: cited from earlier work.
Data set [3] concerns allodynia induced by N-methyl-D-aspartate (NMDA). The data set is described as follows: Mouse NMDA model of allodynia. In kind it is in vivo. As for the experimental part:
(§3) In variants of this model, allodynia can be induced using 100 ng N-methyl-D-aspartate (NMDA) in DMSO intrathecally, or IP phenylephrine (PE) 100 ng/kg formulated in dH2O. In either model, the compounds are formulated in d-H2O and given in a volume of 1 ml/kg body weight for intraperitoneal (IP) dosing. Six mice per group are rendered allodynic by injection of one of the following agents: 300 ng/kg sulprostone in DMSO IP, 100 ng/kg phenylephrine (PE) in dH2O IP, or 100 ng NMDA in DMSO intrathecally (IT). Fifteen minutes before administration of the allodynia-inducing agents, the experimental mice are given 1 mg/kg NB-DNJ. Thirty (30) minutes following administration of NB-DNJ, the allodynic response is monitored as described by brushing the flank of each mouse with a paint brush. Six mice per group are given one of the following: given 100 μg/kg NB-DNJ, 300 μg/kg NB-DNJ, 1 mg/kg NB-DNJ, or 3 mg/kg 1-deoxynojirimycin. After 15 minutes the mice are rendered allodynic by injection of 200 ng NMDA in DMSO IT. Starting thirty (30) minutes following administration of NB-DNJ, the allodynic response of each mouse is monitored by brushing the flank of the mouse with a paint brush. Five to six mice per group are rendered allodynic by injection of one of the following: 300 ng/kg sulprostone IP, 100 ng/kg phenylephrine (PE) IP, or 100 ng NMDA intrathecally (IT). Fifteen minutes prior to the induction of allodynia, the mice are given D-glucaro-delta-lactam IP at […], or 1 mg/kg. PE or NMDA-treated mice are given 1 mg/kg D-glucaro-delta-lactam IP.

In data set [4] the test system is allodynia induced by phenylephrine (PE). The data set is described as follows: Mouse phenylephrine (PE) model of allodynia. The format is in vivo. As to the method:
as §3, with “brush.” for “brush. Six mice per group are given one of the following: given 100 μg/kg NB-DNJ, 300 μg/kg NB-DNJ, 1 mg/kg NB-DNJ, or 3 mg/kg 1-deoxynojirimycin. After 15 minutes the mice are rendered allodynic by injection of 200 ng NMDA in DMSO IT. Starting thirty (30) minutes following administration of NB-DNJ, the allodynic response of each mouse is monitored by brushing the flank of the mouse with a paint brush.”

For data set [5], the system named is primary rat brain cortical neurons. The data set is described as follows: Intrinsic cytotoxicity in neuronal cultures. The format is cell-based. As to the method:
as §1, §2
(§4) Under the experimental conditions used, i.e. after 6 hours addition of excitotoxic agent, 40% toxicity is generally observed and measured by determination of the amount of lactate dehydrogenase (LDH) released into the medium following membrane degradation. […] Overall cell injury was assessed microscopically under phase-contrast optics or by measuring amount of LDH released into the bathing medium 24 hr after neurotoxic insults (see, e.g., Koh and Choi, J. NEUROSCI. METHODS 20: 83-90, 1987), hereby incorporated by reference herein. […]

The test system of data set [6] is primary rat brain cortical neurons treated with NMDA plus D-serine. As to the kind of experiment: NMDA/serine-induced excitotoxicity in primary cortical neurons (LDH release). The format is cell-based. The following applies: 20 μM NMDA plus 10 μM D-serine, 3 h or 16 h preincubation; FIGS. 8A and 8B. As for the experimental part: as §1
After 4 days' growth (DIV 4), half of the medium was replaced by a medium identical to the plating medium but lacking calf serum. At DIV4, 10 μM 5-fluoro-2-deoxyuridine was included to each well to halt overgrowth of glia. Mixed cultures of neurons and glia were then fed at DIV7 and DIV11 with MEM plus 5% horse serum previously conditioned by growth with cortical astrocytes for 24 h. […]
as §4

Structures are written as SMILES. Entries after “also recorded” stand apart in the source; their conditions may differ.

Here are results for two molecules from patent US7884115B2, “Methods and compositions for the treatment of pain and other neurological conditions” (Allergan, Inc., priority 2004, dated 2011).

For the molecule `CCCCN1C[C@H](O)[C@@H](O)[C@H](O)[C@H]1CO` [NB-DNJ, N-butyl-1-deoxy-nojirimycin], in data set [1] (50 μM kainate, compound added without pre-incubation, FIG. 7A), the “attenuation of kainate-induced excitotoxicity” value is “attenuation of kainate-induced excitotoxicity; also recorded: active without any preincubation”. Besides, the neuronal death result in data set [1] (kainate-induced toxicity, various concentrations) is “reduced neuronal death in a dose-dependent manner”; in data set [6], “reduced neuronal death in a dose-dependent manner”. Moreover, the aqueous solubility result in data set [2] is given as “greater than 1000 mg/ml”. Further, in data set [3] (100 μg/kg, 300 μg/kg, 1 mg/kg, 15 min before 200 ng NMDA IT, FIG. 2), the “pain reduction at different doses” value is reported as “dose response”. The “reversal of the allodynic response” value in data set [3] (1 mg/kg given 15 min before NMDA 100 ng IT, FIG. 1) is “significant reversal”; in data set [4] (1 mg/kg given 15 min before PE 100 ng/kg IP, FIG. 1) it was “no reversal”. For the same molecule, the intrinsic cytotoxicity result in data set [5] was “do not show any significant intrinsic cytotoxicity”.

Regarding `O=C(O)[C@H]1NC(=O)[C@H](O)[C@@H](O)[C@@H]1O` [D-glucaro-delta-lactam], the analgesic effect result in data set [3] (1 mg/kg IP, 15 min before NMDA 100 ng IT, FIG. 4) is recorded as “able to achieve an analgesic effect”; in data set [4] (1 mg/kg IP, 15 min before PE 100 ng/kg IP, FIG. 4), “able to achieve an analgesic effect”.
